Results published in US20240076347A1, “METHODS FOR PREVENTING FUNGAL INFECTIONS” (Cidara Therapeutics, Inc., priority 2016, published 2024).
“And” between values parts separate entries of the source, which are not always exact repeats. Identical values can stand only once. Like-named read-outs stand apart in the source and are kept apart here. Numbered stars: 1 amine (or outer) side, 2 acyl side, 3 side chain; on linkers, the order of the positions; unused ones are H or OH. Bridge positions count the residues as written; N and C are the ends. Square brackets hold non-standard residues; d marks the D form. Peptide text beside a SMILES is read from it. * marks the point of attachment. ξ: configuration not given here. Orn(4R-OH,5R-OCH2CH2NMe3+) = C[N+](C)(C)CCO[C@@H](N[*:3])[C@H](O)C[C@H](N[*:1])C(=O)[*:2]; hTyr(3S-OH,4S-OH,3'-OSO3H) = N[C@H](C(=O)O)[C@H](O)[C@@H](O)c1ccc(O)c(OS(=O)(=O)O)c1; pTerphenylCO(4''-OnC5H11) = CCCCCOc1ccc(-c2ccc(-c3ccc(C(=O)*)cc3)cc2)cc1; Orn(4R-OH,5R-OH) = O=C([C@H](C[C@@H](O)[C@@H](O)N[*:3])N[*:1])[*:2]; hTyr(3S-OH,4S-OH) = N[C@H](C(=O)O)[C@H](O)[C@@H](O)c1ccc(O)cc1; Pro(3S-OH,4S-Me) = C[C@H]1CN[C@H](C(=O)O)[C@H]1O; X2 = CCCCCOc1ccc(-c2cc(-c3ccc(C(=O)*)cc3)no2)cc1; Gln(3R-OH) = NC(=O)C[C@@H](O)[C@H](N)C(=O)O; X1 = C[C@H]1CN([*:1])C(C(=O)[*:2])C1O; Hyp = O=C(O)[C@@H]1C[C@@H](O)CN1; ξT = CC(O)C(N)C(=O)O

Legend:
Type in all cases: in vivo
[1] = system: Candida albicans SC5314; assay: Immunocompetent DBA/2 mouse model of disseminated candidiasis, treatment, kidney CFU; conditions: 24 hr
Procedure: The efficacy of CD101 SC was studied in an immunocompetent DBA/2 mouse model of disseminated candidiasis. Mice (5/grp) were challenged with Candida albicans SC5314 (ATCC: MYA-2876, fluconazole-sensitive human clinical isolate shown to be pathogenic in mice) via IV injection (100 μL, 5.0 log CFU/mouse) and treated with CD101 SC (1, 3 or 10 mg/kg). Micafungin via IP administration was tested as a positive control at the same 3 doses. At 24 hours following challenge, kidneys were harvested and processed for CFU enumeration. All comparisons were made between the treatment and time-matched vehicle groups.

[2] = system: Aspergillus fumigatus strain AF293; assay: Murine model of pulmonary aspergillosis (Example 16), survival and lung burden; conditions: for Mean Survival / Median Survival / survival time post infection, range / mice that survived to the end of the study: Day −1; for Group Geometric mean / Log10 Group Geometric mean / Log10 reduction from vehicle control: terminal lung burden; for mice that survived to the end of the study: 6 mice per group, 10 days
Procedure: Animal strain and housing. Mice used in these studies were supplied by Charles River (Margate UK) and were specific pathogen free. The strain of mice used was ICR (also known as CD1 Mice) which is a well characterized outbred murine strain. Male mice were 11-15 g on receipt and allowed to acclimatize for at least 7 days.
Immunosuppression. Mice were immunosuppressed on Day −4 with 150 mg/kg cyclophosphamide administered intraperitoneally (IP), and on Day −1 with 150 mg/kg cyclophosphamide IP and 175 mg/kg cortisone acetate administered subcutaneously (SC). To prevent bacterial infection due to the immunosuppression mice were given once daily 50 mg/kg ceftazidime.
Preparation of Organism and Infection. A. fumigatus strain AF293 inoculum was prepared from spore cultures grown on Sabouraud Dextrose agar (SAB) containing 50 μg/mL chloramphenicol (SABC) in vented tissue culture flasks. Following incubation for 7-10 days at 30° C., spore cultures were washed in sterile phosphate buffered saline (PBS) containing 0.05% Tween 80. Spore count was determined using a haemocytometer and spores were diluted in PBS to ˜6.9×10^6 CFU/mL. Inoculum concentration was confirmed by quantitative culture onto SABC agar.
Neutropenic mice lungs were infected with 0.04 mL (0.02 mL/nare) of ˜4.17×10^6 CFU/mL (˜1.67×10^5 CFU/mouse) of A. fumigatus AF293 by intranasal (IN) instillation under temporary 2.5% isoflurane induced anesthesia.
Preparation of Test Articles. Micafungin (Mycamine, Astellas) was provided as a 50 mg vial (Lot 02323002, expiry 08/2017) and was prepared as per manufacturer's instructions by adding 5 mL saline for injection (SFI) directly into the vial to make up a 10 mg/mL stock solution. This solution was then diluted further in SFI to a working concentration of 0.5 mg/mL. […] It was prepared fresh once and stored at 4° C. until required.
Posaconazole (Noxafil 40 mg/mL oral suspension, Merck Sharp & Dohme Limited) was provided as a 40 mg/mL oral suspension (Lot N00801, expiry 04/2019). This suspension was then diluted further in water for infection (WFI) to a working concentration of 0.2 and 1 mg/mL. The suspension was administered orally (PO) at 10 mL/kg for 2 and 10 mg/kg doses respectively, was prepared fresh once and stored at 4° C. until required.
Test article CD101 stock was prepared at 6 mg/mL in 10% DMSO/1% Tween 20 diluent. A clear non particulate solution was obtained following gentle mixing. […] All doses were administered IP at 10 mL/kg. The study doses were kept at 4° C. until required.
Treatment. For this study, treatments were initiated on Day 1 pre infection according to treatment groups outlined in Table 22. A total of 36 mice (6/treatment group) were used in the study.
Endpoints. The primary endpoint for this study was survival within agreed ethical limits (>20% weight loss, severe hypothermia <34° C., inability to reach food or drink, severe hunching). Mice were monitored by daily weight measurements with observations as frequently as clinical condition required.
Mice presenting with severe clinical deterioration were humanely euthanized using an overdose of pentobarbitone administered by IP injection following clinical assessment and the time of death was recorded. Animal carcasses were stored at −20° C. before quantitative assessment of burden.
Ten days post infection all surviving animals were weighed and had their clinical condition assessed prior to being euthanized. Final survival numbers were recorded and analysed as described below and carcasses frozen at −20° C. prior to further processing.
Lung burden. A secondary endpoint for the study was terminal lung tissue burden. Immediately following confirmation of death, carcasses were frozen at −20° C. prior to tissue dissection and processing. The frozen carcasses were thawed at room temperature, the lungs removed and placed into pre-weighed bead-beating tubes containing 2 mL of PBS and subjected to mechanical disruption. […]

[3] = Plasma and lung epithelial lining fluid (ELF) pharmacokinetics in ICR mice; conditions: 20 mg/kg IP; for Kp: ip, 20 mg/kg
Procedure: At pre-dose, 1, 3, 6, 12, 24, 48, and 72 hours post-dose, 3 mice/timepoint were anesthetized/euthanized for blood collection (plasma) and bronchoalveolar lavage fluid (BALF) collection with 2×0.5 mL flushes of saline. Urea levels for plasma/BALF normalization for the volume of lung epithelial lining fluid (ELF) calculation were quantified using a commercially-available spectrophotometry-based assay. CD101 concentrations in plasma/BALF samples were measured by LC with electrospray ionization tandem mass spectrometric (LC-MS/MS) detection.
Urea for plasma/BALF normalization for ELF volume were quantified using spectrophotometry. CD101 concentrations in plasma/BALF samples were measured by LC-MS/MS. Total plasma concentrations were corrected for protein binding (99.2%).

SMILES: CCCCCOc1ccc(-c2cc(-c3ccc(C(=O)N[C@H]4C[C@@H](O)[C@@H](O)NC(=O)[C@@H]5[C@@H](O)[C@@H](C)CN5C(=O)[C@H]([C@H](O)CC(N)=O)NC(=O)[C@H]([C@H](O)[C@@H](O)c5ccc(O)c(OS(=O)(=O)O)c5)NC(=O)[C@@H]5C[C@@H](O)CN5C(=O)[C@H]([C@@H](C)O)NC4=O)cc3)no2)cc1 [Micafungin, micafungin, reference compound] (X2-[Orn(4R-OH,5R-OH)]T[Hyp][hTyr(3S-OH,4S-OH,3'-OSO3H)][Gln(3R-OH)][Pro(3S-OH,4S-Me)]; lactam 1-C)
- kidney CFU ([1]; 10 mg/kg IP only): complete clearance
- kidney CFU ([1]; 1, 3 and 10 mg/kg IP): good dose response in CFU reduction
- Mean Survival ([2]; 5 mg/kg IP once): 92 h and 92.0 h
- Median Survival ([2]; 5 mg/kg IP once): 80 h and 80.0 h
- survival time post infection, range ([2]; 5 mg/kg IP once): 71 to 162 h
- survival vs vehicle (conclusion) ([2]; 5 mg/kg once one day pre-infection): did not show any improvement in survival
- Group Geometric mean ([2]; 5 mg/kg IP Day −1): 6.61 × 10^3 CFU/g
- Log10 Group Geometric mean ([2]; 5 mg/kg IP Day −1): 3.82 CFU/g
- Log10 reduction from vehicle control ([2]; 5 mg/kg IP Day −1): 0.35 CFU/g

SMILES: CCCCCOc1ccc(-c2ccc(-c3ccc(C(=O)N[C@H]4C[C@@H](O)[C@@H](OCC[N+](C)(C)C)NC(=O)C5C(O)[C@@H](C)CN5C(=O)[C@H]([C@@H](C)O)NC(=O)[C@H]([C@H](O)[C@@H](O)c5ccc(O)cc5)NC(=O)[C@@H]5C[C@@H](O)CN5C(=O)C(C(C)O)NC4=O)cc3)cc2)cc1 (stereo partly drawn) [CD101] ({pTerphenylCO(4''-OnC5H11)}-[Orn(4R-OH,5R-OCH2CH2NMe3+)][ξT][Hyp][hTyr(3S-OH,4S-OH)]T[X1]; lactam 1-C)
- animals completely cleared of CFU burden ([1]; 1 mg/kg SC): 4 of 5
- kidney CFU ([1]; 1, 3 and 10 mg/kg SC, vs vehicle): significant reduction in kidney CFU
- kidney CFU ([1]; 3 or 10 mg/kg SC): complete CFU clearance
- mean maximum ELF concentration [3]: 15.1 µg/mL
- mean maximum plasma concentration [3]: 30.1 µg/mL
- time of maximum ELF concentration [3]: 6 h and 4 h
- time of maximum plasma concentration ([3]; first collection timepoint): 1 h
- concentration at 72 h ([3]; ICR, mouse, lung epithelial lining fluid (ELF), intraperitoneal, at 72 h): 4000 ng/mL
- Kp ([3]; ICR, mouse, lung epithelial lining fluid (ELF), free-drug (protein binding 99.2%), read-out: ELF/Plasma AUC ratio): 100
- Kp ([3]; ICR, mouse, lung epithelial lining fluid (ELF), read-out: AUC exposure ratios of ELF/plasma): 0.8 to 0.95
- Kp ([3]; ICR, mouse, lung epithelial lining fluid (ELF), total-drug, read-out: ELF/Plasma AUC ratio): 0.8
- half-life ([3]; ICR, mouse, lung epithelial lining fluid (ELF), read-out: ELF half-life (converted)): 31.9 h
- AUC(0-t) ([3]; ICR, mouse, lung epithelial lining fluid (ELF), read-out: mean ELF AUC0-72): 606 µg·h/mL
- AUC(0-inf) ([3]; ICR, mouse, lung epithelial lining fluid (ELF), read-out: mean ELF AUCinf): 802 µg·h/mL
- AUC(0-t) ([3]; ICR, mouse, plasma, read-out: mean plasma AUC0-72): 762 µg·h/mL
- AUC(0-inf) ([3]; ICR, mouse, plasma, read-out: mean plasma AUCinf): 848 µg·h/mL
- half-life ([3]; ICR, mouse, plasma, read-out: plasma half-life (converted)): 21.1 h
- Mean Survival ([2]; 20 mg/kg IP once): 130.4 h
- Median Survival ([2]; 20 mg/kg IP once): 74.7 h
- survival time post infection, range ([2]; 20 mg/kg IP once): 70 to 240 h
- mice that survived to the end of the study ([2]; 20 mg/kg IP once): Two
- Mean Survival ([2]; 60 mg/kg IP once): 122.7 h
- Median Survival ([2]; 60 mg/kg IP once): 88.7 h
- survival time post infection, range ([2]; 60 mg/kg IP once): 73-240
- mice that survived to the end of the study ([2]; 60 mg/kg IP once): A single mouse
- survival vs vehicle (conclusion) ([2]; 20 and 60 mg/kg once one day pre-infection): slight increase in survival, which was statistically longer than the vehicle treatment
- Group Geometric mean ([2]; 20 mg/kg IP Day −1): 4.37 × 10^3 CFU/g
- Log10 Group Geometric mean ([2]; 20 mg/kg IP Day −1): 3.64 CFU/g
- Log10 reduction from vehicle control ([2]; 20 mg/kg IP Day −1): 0.53 CFU/g
- Group Geometric mean ([2]; 60 mg/kg IP Day −1): 1.38 × 10^4 CFU/g
- Log10 Group Geometric mean ([2]; 60 mg/kg IP Day −1): 4.14 CFU/g
- Log10 reduction from vehicle control ([2]; 60 mg/kg IP Day −1): 0.03 CFU/g
